Test results published in patent US7511145B2 (Genelabs Technologies, Inc., priority 2003, dated 2009).

Biological target: T1, HCV-NS5b (Hepatitis C virus genotype 1b, UniProt Q9WMX2)
T1 construct: (His)6 (C); made in house; host or cells: XL-1 cells (E. coli), IPTG-inducible plasmid, nickel-NTA purification
Assay: HCV-NS5b enzyme assay (incorporation of radiolabeled UTP)
Type: biochemical
Settings: for inhibition at 33 µM: enzyme inhibition at compound concentration of 33 uM; for inhibition at 100 µM: read-out: % inh@100, enzyme inhibition at compound concentration of 100 uM
From the text: The coding sequence of NS5b protein was cloned by PCR from pFKI389luc/NS3-3′/ET as described by Lohmann, V., et al. (1999) Science 285, 110-113 using the following primers: […]
The cloned fragment was missing the C terminus 21 amino acid residues. The cloned fragment was inserted into an IPTG-inducible expression plasmid that provided an epitope tag (His)6 at the carboxy terminus of the protein.
The recombinant enzyme was expressed in XL-1 cells and after induction of expression, the protein was purified using affinity chromatography on a nickel-NTA column. Storage condition was 10 mM Tris-HCl pH 7.5, 50 mM NaCl, 0.1 mM EDTA, 1 mM DTT, 20% glycerol at −20° C.
The polymerase activity was assayed by measuring incorporation of radiolabeled UTP into a RNA product using a biotinylated, heteropolymeric template, which included a portion of the HCV genome. Typically, the assay mixture (50 μL) contained 10 mM Tris-HCl (pH 7.5), 5 mM MgCl2, 0.2 mM EDTA, 10 mM KCl, 1 unit/μL RNAsin, 1 mM DTT, 10 μM each of NTP, including [^3H]-UTP, and 10 ng/μL heteropolymeric template. Test compounds were initially dissolved in 100% DMSO and further diluted in aqueous buffer containing 5% DMSO. Typically, compounds were tested at concentrations between 1 nM and 100 μM. Reactions were started with addition of enzyme and allowed to continue at 37° C. for 2 hours. Reactions were quenched with 8 μL of 100 mM EDTA and reaction mixtures (30 μL) were transferred to streptavidin-coated scintillation proximity microtiter plates (FlashPlates) and incubated at 4° C. overnight. Incorporation of radioactivity was determined by scintillation counting.
Shown in Table IX below are the values for enzyme inhibition measured at compound concentrations of 100 and 33 uM, (% inh@[…] and % inh@33, respectively). The percent inhibition values are calculated from the differential incorporation of radioactivity compared to a control reaction without compound: % inhibition=100−[(CountsINH−CountsBKG)/CountsCTRL−CountsBKG)×100 where CountsINH is the signal of the testwell with inhibitor, CountsBKG is the background signal and CountsCTRL is the signal of a testwell without inhibitor.

Row | SMILES | inhibition at 33 µM | inhibition at 100 µM
1 | COc1ccc(-c2cccc(C)c2)c(-c2ccc3cc(-c4nc5cc(C(=O)O)ccc5n4C4CCCCC4)ccc3n2)c1 [Compound 367, 1-cyclohexyl-2-[2-(4-methoxy-3′-methyl-biphen-2-yl)-quinolin-6-yl]-1H-benzoimidazole-5-carboxylic acid] | 103% | 101%
2 | NC(=O)[C@H](Cc1cnc[nH]1)NC(=O)c1ccc2cc(-c3nc4cc(C(=O)O)ccc4n3C3CCCCC3)ccc2n1 [Compound 368] | 51.2% | 79.5%
3 | O=C(O)c1ccc2c(c1)nc(-c1ccc3nc(-c4ccccc4-c4ccncc4)ccc3c1)n2C1CCCCC1 [Compound 369, 1-Cyclohexyl-2-[2-(2-pyrid-4-yl-phenyl)-quinolin-6-yl]-1H-benzoimidazole-5-carboxylic acid] | 96.2% | 98.8%
4 | O=C(O)c1ccc2c(c1)nc(-c1ccc3nc(-c4cccc(C(=O)N5CCCC5)c4)ccc3c1)n2C1CCCCC1 [Compound 370, 1-Cyclohexyl-2-{2-[3-(pyrrolidine-1-carbonyl)-phenyl]-quinolin-6-yl}-1H-benzoimidazole-5-carboxylic acid] | 97.8% | 99.7%
5 | Nc1ccc(-c2ccc3cc(-c4nc5cc(C(=O)O)ccc5n4C4CCCCC4)ccc3n2)cc1Br [Compound 372, 2-[2-(4-amino-3-bromo-phenyl)-quinolin-6-yl]-1-cyclohexyl-1H-benzoimidazole-5-carboxylic acid] | 98.1% | 98.2%
6 | O=C(O)c1ccc2c(c1)nc(-c1ccc3[nH]c(-c4ccccc4)cc(=O)c3c1)n2C1CCCCC1 [Compound 373, 1-cyclohexyl-2-(4-oxo-2-phenyl-1,4-dihydro-quinolin-6-yl)-1H-benzoimidazole-5-carboxylic acid] | 39.9% | 83.8%
7 | NC(=O)c1cc(-c2ccc3cc(-c4nc5cc(C(=O)O)ccc5n4C4CCCCC4)ccc3n2)ccc1O [Compound 374, 2-[2-(3-carbamoyl-4-hydroxy-phenyl)-quinolin-6-yl]-1-cyclohexyl-1H-benzoimidazole-5-carboxylic acid] | 97.6% | 98.3%
8 | O=C(O)c1ccc2c(c1)nc(-c1ccc3nc(-c4cc(OCC(=O)N5CCCC5)ccc4-c4ccc(Cl)cc4)ccc3c1)n2C1CCCCC1 [Compound 376, 2-{2-[4′-Chloro-4-(2-oxo-2-pyrrolidin-1-yl-ethoxy)-biphen-2-yl]-quinolin-6-yl}-1-cyclohexyl-1H-benzoimidazole-5-carboxylic acid] | 97.4% | 97.2%
9 | NC(=O)CNC(=O)c1ccc(-c2ccccc2)c(-c2ccc3cc(-c4nc5cc(C(=O)O)ccc5n4C4CCCCC4)ccc3n2)c1 [Compound 377, 2-{2-[4-(Carbamoylmethyl-carbamoyl)-biphen-2-yl]-quinolin-6-yl}-1-cyclohexyl-1H-benzoimidazole-5-carboxylic acid] | 99.2% | 99.4%
10 | CNC(=O)c1ccc(-c2ccc(Cl)cc2)c(-c2ccc3cc(-c4nc5cc(C(=O)O)ccc5n4C4CCCCC4)ccc3n2)c1 [Compound 378, 2-[2-(4′-chloro-4-methylcarbamoyl-biphen-2-yl)-quinolin-6-yl]-1-cyclohexyl-1H-benzoimidazole-5-carboxylic acid] | 100% | 101%
11 | Cc1cc(-c2nc3cc(C(=O)O)ccc3n2C2CCCCC2)cc2ccc(-c3ccccc3-c3ccccc3)nc12 [Compound 379, 2-(2-Biphen-2-yl-8-methyl-quinolin-6-yl)-1-cyclohexyl-1H-benzoimidazole-5-carboxylic acid] | 93.3% | 97.8%
12 | O=C(O)c1ccc2c(c1)nc(-c1ccc3nc(-c4ccccc4)cc(Nc4ccc(Cl)cc4)c3c1)n2C1CCCCC1 [Compound 380, 2-[4-(4-chloro-phenylamino)-2-phenyl-quinolin-6-yl]-1-cyclohexyl-1H-benzoimidazole-5-carboxylic acid] | 97.6% | 101%
13 | O=C(O)c1ccc2c(c1)nc(-c1ccc3nc(-c4cc(O)cc(O)c4)ccc3c1)n2C1CCCCC1 [Compound 381, 1-cyclohexyl-2-[2-(3,5-dihydroxy-phenyl)-quinolin-6-yl]-1H-benzoimidazole-5-carboxylic acid] | 94.3% | 98%
14 | COc1ccc(-c2ccc(C(N)=O)cc2)c(-c2ccc3cc(-c4nc5cc(C(=O)O)ccc5n4C4CCCCC4)ccc3n2)c1 [Compound 382, 2-[2-(4′-carbamoyl-4-methoxy-biphen-2-yl)-quinolin-6-yl]-1-cyclohexyl-1H-benzoimidazole-5-carboxylic acid] | 101% | 101%
15 | COc1ccc(-c2ccc(CN)cc2)c(-c2ccc3cc(-c4nc5cc(C(=O)O)ccc5n4C4CCCCC4)ccc3n2)c1 [Compound 384, 2-[2-(4′-aminomethyl-4-methoxy-biphen-2-yl)-quinolin-6-yl]-1-cyclohexyl-1H-benzoimidazole-5-carboxylic acid] | 95.5% | 99.3%
16 | NC(=O)[C@H](CO)NC(=O)c1ccc2cc(-c3nc4cc(C(=O)O)ccc4n3C3CCCCC3)ccc2n1 [Compound 385, 2-[2-(1-Carbamoyl-2-hydroxyethylcarbamoyl)quinolin-6-yl]-1-cyclohexyl-1H-benzimidazole-5-carboxylic acid] | 42.6% | 76.2%
17 | O=C(O)c1ccc2c(c1)nc(-c1ccc3nc(-c4ccccc4)c(-c4ccccc4)cc3c1)n2C1CCCCC1 [Compound 386, 1-cyclohexyl-2-(2,3-diphenyl-quinolin-6-yl)-1H-benzoimidazole-5-carboxylic acid] | 100% | 99.9%
18 | O=C(O)c1ccc2c(c1)nc(-c1ccc3nc(-c4ccccc4-c4ccc(Cl)cc4)ccc3c1)n2C1CCCCC1 [Compound 387, 2-[2-(4′-Chloro-biphen-2-yl)-quinolin-6-yl]-1-cyclohexyl-1H-benzoimidazole-5-carboxylic acid] | 99% | 98.7%
19 | O=C(O)c1ccc2c(c1)nc(-c1cc3ccc(-c4ccccc4-c4ccccc4)nc3cc1F)n2C1CCCCC1 [Compound 388, 2-(2-Biphen-2-yl-7-fluoro-quinolin-6-yl)-1-cyclohexyl-1H-benzoimidazole-5-carboxylic acid] | 98.7% | 98.6%
20 | Cc1ccc(-c2nc3ccc(-c4nc5cc(C(=O)O)ccc5n4C4CCCCC4)cc3nc2-c2ccc(C)cc2)cc1 [Compound 389, 1-Cyclohexyl-2-(2,3-di-p-tolylquinoxalin-6-yl)-1H-benzimidazole-5-carboxylic acid] | 99.9% | 99.5%
21 | O=C(O)c1ccc2c(c1)nc(-c1ccc3nc(-c4ccc(-c5ccccc5)cc4)ccc3c1)n2C1CCCCC1 [Compound 390, 2-(2-biphenyl-4-yl-quinolin-6-yl)-1-cyclohexyl-1H-benzoimidazole-5-carboxylic acid] | 79.9% | 92.5%
22 | Cc1nc(N)sc1-c1ccc2cc(-c3nc4cc(C(=O)O)ccc4n3C3CCCCC3)ccc2n1 [Compound 391] | 94.1% | 97.5%
23 | O=C(O)c1ccc2c(c1)nc(-c1ccc3nc(CCCO)ccc3c1)n2C1CCCCC1 [Compound 392, 1-Cyclohexyl-2-[2-(3-hydroxy-propyl)-quinolin-6-yl]-1H-benzoimidazole-5-carboxylic acid] | 83.8% | 93.5%
24 | O=C(O)COc1ccc(-c2ccc(Cl)cc2)c(-c2ccc3cc(-c4nc5cc(C(=O)O)ccc5n4C4CCCCC4)ccc3n2)c1 [Compound 393, 2-[2-(4-Carboxymethoxy-4′-chloro-biphen-2-yl)-quinolin-6-yl]-1-cyclohexyl-1H-benzoimidazole-5-carboxylic acid] | 97.6% | 96.9%
25 | COc1cc(Br)c2oc(-c3ccc4cc(-c5nc6cc(C(=O)O)ccc6n5C5CCCCC5)ccc4n3)cc2c1 [Compound 394, 2-[2-(7-bromo-5-methoxy-benzofuran-2-yl)-quinolin-6-yl]-1-cyclohexyl-1H-benzoimidazole-5-carboxylic acid] | 98.9% | 100%
26 | O=C(O)c1ccc2c(c1)nc(-c1ccc3nc(-c4ccccc4-c4ccccc4)ccc3c1)n2C1CCCCC1 [Compound 395, 2-(2-biphen-2-yl-quinolin-6-yl)-1-cyclohexyl-1H-benzoimidazole-5-carboxylic acid] | 100% | 101%
